The NIST ThermoML archive (doi:10.1016/j.jct.2012.07.007)

What was measured:
[1] = xn = mol fraction of the nth substance listed; settings: 101 kPa, Liquid; for speed of sound: Linear variable-path acoustic interferometer; for mass density: Vibrating tube method
[2] = excess molar enthalpy (molar enthalpy of mixing); xn = mol fraction of the nth substance listed; settings: 298.15 K, 101 kPa, Liquid, 2-drop calorimetry

Cc1ccncc1 [4-methylpyridine] + CCn1cc[n+](C)c1.F[B-](F)(F)F
[1]
Settings | mass density, 293.15 K [kg/m3] | mass density, 298.15 K [kg/m3] | mass density, 303.15 K [kg/m3] | mass density, 308.15 K [kg/m3] | speed of sound, 293.15 K [m/s] | speed of sound, 298.15 K [m/s] | speed of sound, 303.15 K [m/s] | speed of sound, 308.15 K [m/s]
x2 = 0.1211 | 1022.19 | 1017.25 | 1012.54 | 1008.4 | 1485 | 1464.4 | 1448.9 | 1428.2
x2 = 0.1734 | 1048.92 | 1043.93 | 1039.26 | 1035.43 | 1499.5 | 1479.3 | 1464.5 | 1443.7
x2 = 0.2215 | 1072.35 | 1067.26 | 1062.71 | 1059.13 | 1512.2 | 1492.7 | 1478.1 | 1457.6
x2 = 0.2738 | 1096.49 | 1091.32 | 1086.94 | 1083.63 | 1525 | 1506.5 | 1492.3 | 1472.9
x2 = 0.3226 | 1117.74 | 1112.6 | 1108.38 | 1105.18 | 1536.7 | 1519.3 | 1505.1 | 1486.3
x2 = 0.3709 | 1137.61 | 1132.52 | 1128.45 | 1125.39 | 1548 | 1531.8 | 1517.3 | 1499.9
x2 = 0.4215 | 1157.13 | 1152.2 | 1148.31 | 1145.11 | 1558.7 | 1543.8 | 1529.7 | 1514.7
x2 = 0.4721 | 1175.31 | 1170.56 | 1166.92 | 1163.65 | 1568.6 | 1554.4 | 1541.8 | 1528.9
x2 = 0.5207 | 1191.56 | 1186.91 | 1183.59 | 1180.05 | 1576.9 | 1564.8 | 1553 | 1542.6
x2 = 0.5728 | 1207.52 | 1203.15 | 1200.15 | 1196.14 | 1585.7 | 1573.8 | 1564.2 | 1557.1
x2 = 0.6218 | 1221.15 | 1217.12 | 1214.3 | 1209.95 | 1593.2 | 1582.3 | 1574.8 | 1570.3
x2 = 0.6731 | 1234.15 | 1230.36 | 1227.81 | 1222.97 | 1600.4 | 1589.4 | 1585.1 | 1582.7
x2 = 0.7224 | 1245.2 | 1241.78 | 1239.32 | 1234.16 | 1607 | 1595.7 | 1594.6 | 1593.7
x2 = 0.7743 | 1255.49 | 1252.28 | 1249.84 | 1244.37 | 1613 | 1601.8 | 1602.4 | 1603.4
x2 = 0.8203 | 1263.45 | 1260.27 | 1257.85 | 1252.23 | 1617.3 | 1606.3 | 1608.5 | 1609.8
x2 = 0.8717 | 1270.96 | 1267.85 | 1265.24 | 1259.65 | 1622.3 | 1610.6 | 1612.2 | 1612.8
x2 = 0.9111 | 1275.81 | 1272.56 | 1269.8 | 1264.37 | 1625.3 | 1613.4 | 1613.3 | 1611.5
x2 = 0.9312 | 1278 | 1274.64 | 1271.69 | 1266.47 | 1626.7 | 1614.9 | 1613.3 | 1609.7

[2]
Settings | excess molar enthalpy [kcal/mol]
x2 = 0.111 | -0.0311
x2 = 0.1679 | -0.0454
x2 = 0.2098 | -0.0558
x2 = 0.2387 | -0.0624
x2 = 0.2909 | -0.0731
x2 = 0.3267 | -0.0788
x2 = 0.379 | -0.0873
x2 = 0.4167 | -0.0925
x2 = 0.4834 | -0.0997
x2 = 0.5267 | -0.104
x2 = 0.5908 | -0.106
x2 = 0.615 | -0.106
x2 = 0.6786 | -0.101
x2 = 0.7234 | -0.0974
x2 = 0.7945 | -0.0841
x2 = 0.8346 | -0.0723
x2 = 0.889 | -0.0539
x2 = 0.9267 | -0.0389

c1ccncc1 [pyridine] + CCn1cc[n+](C)c1.F[B-](F)(F)F
[1]
Settings | mass density, 293.15 K [kg/m3] | mass density, 298.15 K [kg/m3] | mass density, 303.15 K [kg/m3] | mass density, 308.15 K [kg/m3] | speed of sound, 293.15 K [m/s] | speed of sound, 298.15 K [m/s] | speed of sound, 303.15 K [m/s] | speed of sound, 308.15 K [m/s]
x2 = 0.1225 | 1057.86 | 1053.89 | 1049.31 | 1044.82 | 1486.4 | 1466.7 | 1450.1 | 1431.5
x2 = 0.1781 | 1085.74 | 1081.91 | 1077.49 | 1073.08 | 1504.8 | 1486.7 | 1470.9 | 1453.6
x2 = 0.2349 | 1111.05 | 1107.24 | 1102.93 | 1098.58 | 1521.5 | 1505.5 | 1489.4 | 1473.3
x2 = 0.2787 | 1128.56 | 1124.75 | 1120.49 | 1116.15 | 1533.4 | 1517.7 | 1502.2 | 1487.6
x2 = 0.3215 | 1144.24 | 1140.37 | 1136.25 | 1131.85 | 1544 | 1528.8 | 1513.9 | 1499.2
x2 = 0.3716 | 1160.99 | 1156.91 | 1152.96 | 1148.63 | 1555.6 | 1541.1 | 1525 | 1512.2
x2 = 0.4229 | 1176.47 | 1172.38 | 1168.48 | 1164.16 | 1565.7 | 1550.9 | 1536.1 | 1523.5
x2 = 0.4723 | 1189.98 | 1185.87 | 1182.12 | 1177.75 | 1574 | 1560.4 | 1544.5 | 1533.1
x2 = 0.5213 | 1202.28 | 1198.15 | 1194.47 | 1190.17 | 1582.4 | 1568.3 | 1552.8 | 1541.1
x2 = 0.5731 | 1214.14 | 1209.97 | 1206.44 | 1202.2 | 1589.6 | 1575.5 | 1561.4 | 1549.5
x2 = 0.6212 | 1224.23 | 1220.11 | 1216.67 | 1212.48 | 1596.2 | 1582.6 | 1568.1 | 1557.4
x2 = 0.6719 | 1234.08 | 1230 | 1226.63 | 1222.55 | 1603.2 | 1589.2 | 1575.5 | 1564.3
x2 = 0.7224 | 1243.17 | 1239.16 | 1235.85 | 1231.85 | 1609.3 | 1595.2 | 1583.1 | 1571.5
x2 = 0.7737 | 1251.76 | 1247.81 | 1244.54 | 1240.61 | 1615.2 | 1601.3 | 1589.7 | 1578.5
x2 = 0.8219 | 1259.31 | 1255.42 | 1252.16 | 1248.26 | 1619.9 | 1607 | 1595.8 | 1584.8
x2 = 0.8764 | 1267.33 | 1263.49 | 1260.17 | 1256.28 | 1625.1 | 1612.2 | 1602 | 1590.5
x2 = 0.9223 | 1273.71 | 1269.86 | 1266.47 | 1262.53 | 1628.2 | 1616 | 1605.5 | 1594
x2 = 0.9349 | 1275.41 | 1271.55 | 1268.13 | 1264.16 | 1628.9 | 1616.8 | 1606.2 | 1594.8

[2]
Settings | excess molar enthalpy [kcal/mol]
x2 = 0.1025 | -0.0352
x2 = 0.1335 | -0.0449
x2 = 0.1727 | -0.0555
x2 = 0.2121 | -0.067
x2 = 0.2654 | -0.0785
x2 = 0.3078 | -0.087
x2 = 0.3587 | -0.0968
x2 = 0.4112 | -0.101
x2 = 0.4632 | -0.107
x2 = 0.4956 | -0.108
x2 = 0.5325 | -0.108
x2 = 0.589 | -0.106
x2 = 0.6312 | -0.1
x2 = 0.6983 | -0.091
x2 = 0.7567 | -0.0806
x2 = 0.8078 | -0.0667
x2 = 0.8654 | -0.0505
x2 = 0.9123 | -0.0344
